The record followed here is US10081655B2, “Cationic antibacterial composition” (priority 2011, dated 2018).

Data set [1] concerns Methicillin resistant S. aureus (ATCC 33591). Kind of data set: microbe, parasite or virus in culture. The data set is classed as cell-based. How it is done:
For solid media, about 5% agar was used along with above mentioned composition. […] VSE and VRE were cultured in Brain Heart Infusion broth (Himedia). […] The 6 h grown culture was diluted to give effective cell concentration of about 10^5 cfu/mL which was then used for determining MIC.
About 50 μL of these serial dilutions were added to the wells of 96 well plate followed by the addition of about 150 μL of bacterial solution. […] Each concentration had triplicate values and the whole experiment was done at least twice and the MIC value was determined by taking the average of triplicate O. D. values for each concentration and plotting it against concentration. The data was then subjected to sigmoidal fitting.

Data set [2] concerns Vancomycin restant S. aureus (Clinical isolate, MMC-20, VanA & VanB). In words: MIC, broth dilution method in Mueller-Hinton broth. The data set is classed as cell-based. Conditions: VRSA. On the procedure:
For vancomycin resistant staphylococcus aureus (VRSA; clinical isolate MMC-20), the MIC of compounds was determined by broth dilution method using Mueller-Hinton broth (MHB), as recommended by the National Committee for Clinical Laboratory Standards. About 5×10^4 bacterial cells in MHB culture were treated with different concentrations of compounds, and shaken for 16 h at 37° C. The minimum concentration at which there was no visible turbidity was taken as the MIC of that compound.

In data set [3] the test system is MSSA. In words: MBC by plating. The format is cell-based, S. aureus. Conditions: against MSSA. On the procedure:
(§1) All cationic antibacterial compounds and control (vancomycin) were assayed in a micro-dilution broth format. Stock solutions were made by serially diluting the compounds using autoclaved Millipore water or broth media. The antibacterial activity of the compounds was determined against Methicillin sensitive S. aureus (MSSA), Methicillin resistant S. aureus (MRSA), vancomycin sensitive Enterococcus faecium (VSE), vancomycin resistant Enterococcus faecium (VRE), and E. coli. Bacteria, to be tested, were grown for about 10 h in the suitable media, MSSA and MRSA were grown in Yeast-dextrose broth (about 1 g of beef extract, about 2 g of yeast extract, about 5 g of peptone and about 5 g of NaCl in about 1000 mL of sterile distilled water (pH-7)). For solid media, about 5% agar was used along with above mentioned composition. E. coli was cultured in Luria Bertani broth (about 10 g of tryptone, about 5 g of yeast extract, and about 10 g of NaCl in 1000 mL of sterile distilled water, pH −7). VSE and VRE were cultured in Brain Heart Infusion broth (Himedia). The bacterial samples were freeze dried and stored at about −80° C. About 5 μl of these stocks were added to about 3 ml of the nutrient broth and the culture was grown for about 6 h at about 37° C. prior to the experiments. This 6 h grown culture gives about 10^9 cfu/mL for MSSA and MRSA, while it was about 10^8 cfu/mL for E. coli, 10^9 cfu/mL for both VSE and VRE and this was determined by spread plating method. The 6 h grown culture was diluted to give effective cell concentration of about 10^5 cfu/mL which was then used for determining MIC.
(§2) Compounds were serially diluted, in sterile water (2 fold dilution is employed) in a way that the working concentration was about 10 μM for MSSA MRSA, and VSE while for VRE and E. coli it was about 100 μM. About 50 μL of these serial dilutions were added to the wells of 96 well plate followed by the addition of about 150 μL of bacterial solution. The plates were then incubated at about 37° C., 150 rpm in the incubator and O.D at 600 nm was recorded at an interval of about 10 h and about 24 h using TECAN (Infinite series, M200 pro) Plate Reader. Each concentration had triplicate values and the whole experiment was done at least twice and the MIC value was determined by taking the average of triplicate O. D. values for each concentration and plotting it against concentration. The data was then subjected to sigmoidal fitting. From the curve the MIC value was determined, as the point in the curve where the O.D. was similar to that of control having no bacteria.
(§3) MBC values were determined by plating about 50 μl of the solution and later counting the colonies after their development.

The test system of data set [4] is E. coli. In words: MIC, micro-dilution broth. The format is cell-based. On the procedure:
as §1, §2
For orientation: Dilution methods test growth across graded concentrations, often in twofold steps.

Data set [5] deals with Methicillin sensitive S. aureus (MTCC 737). In words: MIC, micro-dilution broth. The format is cell-based. On the procedure: as §1, §2
Data set [6] has as its system Vancomycin resistant E. faecium (VanA, ATCC 51559). In words: MIC, micro-dilution broth. The format is cell-based. On the procedure:
as §1, §2

In data set [7] the test system is Vancomycin sensitive E. faecium (ATCC 19634). In words: MIC, micro-dilution broth. The data set is classed as cell-based. On the procedure:
as §1, §2

Data set [8] has as its system E. coli. In words: MBC by plating. The format is cell-based. How it is done:
as §1, §2, §3

The test system of data set [9] is MRSA. Kind of data set: MBC by plating. The format is cell-based, S. aureus. The conditions noted are these: Staphylococcus aureus; against MRSA. On the procedure:
as §1, §2, §3

Data set [10] has as its system MRSA. Kind of data set: Time-kill assay. The data set is classed as cell-based, S. aureus. The conditions noted are these: 1×MIC, 6×MIC, 12×MIC, 0-3 h. How it is done: The bactericidal activity was assessed by the kinetics or the rate at which it affects the killing action of the compound. Briefly MRSA grown in Yeast-Dextrose broth. […] Bacterial suspension containing specified concentrations of the compound along with negative control (which contains only 0.9% Saline) was incubated at 37° C. with shaking. Aliquots (20 μl) were removed from the cultures at 0, 1, 2 and 3 h and were serially diluted 10-fold in 0.9% saline and plated onto sterile Yeast-Dextrose agar medium. The number of viable cells was determined by plating the 10-fold serial dilution of each sample onto Yeast-dextrose agar medium. Plates were then incubated for 24 h at 37° C., CFU was counted and the total bacterial log10 CFU/ml was determined.

The subject of data set [11] is MSSA. Kind of data set: Cytoplasmic membrane depolarization assay (diSC3(5)). The conditions noted are these: concentration as high as 40 μM. The data set is classed as cell-based, S. aureus. On the procedure:
Midlog phase bacterial cells were harvested, washed with about 5 mM HEPES and about 5 mM glucose and resuspended in about 5 mM glucose, about 5 mM HEPES buffer and about 100 mM KCl solution in 1:1:1 ratio (about 10^8 cfu/ml). Measurements were made in a cuvette containing about 2 ml of bacterial suspension and about 2 μM diSC3(5). The fluorescence of the dye was monitored for about 10 min (MSSA) to about 20 min (E. coli) at R.T. spectrofluorometer at excitation wavelength of about 622 nm and emission wavelength of about 670 nm. Dye uptake, and resultant self quenching, was modulated by the membrane potential. After reaching the maximum uptake of the dye by bacteria, which was indicated by a minimum in dye fluorescence, (after about 10 min for S. aureus and about 20 min for E. coli) compounds (4 and 7) and control were added to the cells, and the decrease in potential was monitored by the increase in fluorescence for further about 10 min.

Data set [12] relates to Human Red Blood Cells (RBC). Kind of data set: Hemolytic assay. The data set is classed as cell-based. Conditions: Erythrocyte, 1 h, about one hour at about 37° C., read-out: EC50 (hemolysis). On the procedure:
Fresh human blood was collected under aseptic conditions in heparinised vacutainers. vancomycin derivatives are serially diluted, in sterile water (about 2 fold dilution is employed) in a way that the working concentration is about 100 μM. Heparinised blood was centrifuged down at about 3500 rpm for about 5 min in order to separate Red Blood Cells and blood plasma. RBC's are then washed couple of times with PBS pH-7.4 and suspended in PBS such that the final concentration of RBC was about 5 vol %. About 150 μL of this is mixed with about 50 μL of serially diluted compound in 96 well plate. The plate was then incubated at about 37° C. for about one hour. Later, the plate was centrifuged down at about 3500 rpm for about 5 min. The lysed RBC releases haemoglobin which was present in the supernatant. The supernatant thus was pipetted out into another fresh 96 well plate and the absorbance was measured at about 540 nm.
Percentage of hemolysis was determined as (A−A0)/(Atotal−A0)×100, where A is the absorbance of the test well, A0 the absorbance of solution without compound, and Atotal the absorbance of 100% hemolysis wells (with Triton X-100), all at 540 nm.

A short description of the next data set: Cytotoxicity assay (MTT). The format is cell-based. The conditions noted are these: human, HeLa cells (cervical cancer cells), about 24 h. How it is done:
Cytotoxity of compounds 4 and 7 was determined against HeLa cell line following well known MTT assay. Cells were grown in DMEM at about 37° C. in a humidified-air atmosphere (about 5% CO2/95% air) in DMEM complete medium, supplemented with about 10% heat inactivated Fetal Bovine Serum and about 100 units/mL penicillin G, about 100 µg/mL streptomycin. Cells were seeded into 96 well plate and kept under the above mentioned conditions till they attained about 80% confluency. Compounds were serially diluted, in sterile water (2 fold dilution is employed) in a way that the working concentration was 100 μM. 50 μL of these dilutions were added to the cells and the volume was made up to 200 μL using DMEM medium. Cells were kept under observation for about 24 h. Later the medium was removed, cells were washed thoroughly with PBS and about 100 μL of MTT solution (about 5 mg/mL) was added to the wells. After about 3 h the MTT was removed, cells were lysed using DMSO and the plate was read at about 570 nm. One containing no compound (untreated cell) and other with about 10 vol % Triton-X 100 solution were also used. Percentage of cell survival was calculated using the formula: (Atreated cells−Atriton-X cells)/(Auntreated cell−Atriton-X cells)×100
A plot of % of survival against concentration of compound was plotted using Origin Pro software.

In brackets after ≈: the same amount, converted by molar mass. Bounds are passed on as bounds.

A word on the MBC: it is the smallest concentration meeting the test's criterion for killing. A high value points to less potent killing. With `CN[C@H](CC(C)C)C(=O)N[C@H]1C(=O)N[C@@H](CC(N)=O)C(=O)N[C@H]2C(=O)N[C@H]3C(=O)N[C@H](C(=O)N[C@H](C(=O)NCCCN(C)C)c4cc(O)cc(O)c4-c4cc3ccc4O)[C@H](O)c3ccc(c(Cl)c3)Oc3cc2cc(c3O[C@@H]2O[C@H](CO)[C@@H](O)[C@H](O)[C@H]2O[C@H]2C[C@](C)(N)[C@H](O)[C@H](C)O2)Oc2ccc(cc2Cl)[C@H]1O` [Compound 1], the MIC in data set [1] (MRSA, ATCC 33591) was 0.61 µM (≈ 0.935 µg/mL); in data set [2] (clinical isolate MMC-20) it was 0.53 µM (≈ 0.813 µg/mL); against E. coli [4] (against E. coli) it was 50 µM (≈ 76.7 µg/mL); in data set [5] (MSSA, S. aureus MTCC 737) it was 0.62 µM (≈ 0.951 µg/mL); in [6] (VRE, E. faecium VanA ATCC 51559) it was more than 100 µM; in [7] (VSE, E. faecium ATCC 19634), 0.63 µM (≈ 0.966 µg/mL). Also, the minimal bactericidal concentration (MBC) came to 1.25 µM (≈ 1.92 µg/mL) against MSSA [3] and 50 µM (≈ 76.7 µg/mL) against E. coli [8] (against E. coli).
One may read the EC50 as the concentration giving half of the maximal effect. Regarding `CN[C@H](CC(C)C)C(=O)N[C@H]1C(=O)N[C@@H](CC(N)=O)C(=O)N[C@H]2C(=O)N[C@H]3C(=O)N[C@H](C(=O)N[C@H](C(=O)O)c4cc(O)cc(O)c4-c4cc3ccc4O)[C@H](O)c3ccc(c(Cl)c3)Oc3cc2cc(c3O[C@@H]2O[C@H](CO)[C@@H](O)[C@H](O)[C@H]2O[C@H]2C[C@](C)(N)[C@H](O)[C@H](C)O2)Oc2ccc(cc2Cl)[C@H]1O` [Vancomycin], the MIC in data set [1] (Staphylococcus aureus, ATCC 33591 / MRSA) is 0.63 µM (≈ 0.913 µg/mL); in data set [2] (Staphylococcus aureus) it was more than 86 µM; in the data set with E. coli [4] (Escherichia coli), 80 to 100 µM (≈ 116 to 145 µg/mL); in data set [5] (Staphylococcus aureus, MSSA / MTCC737), 0.63 µM (≈ 0.913 µg/mL); in data set [6] (Enterococcus faecium, ATCC 51559 / VRE) it was more than 100 µM; in data set [7] (Enterococcus faecium, ATCC19634), 0.6 µM (≈ 0.87 µg/mL). Also, the MBC is 2.5 µM (≈ 3.62 µg/mL) against MRSA [9]; approximately 2.5 µM (≈ 3.62 µg/mL) with MSSA [3] (Staphylococcus aureus, MSSA); 2.5 µM (≈ 3.62 µg/mL) in the data set on MSSA [3] (listed as Control); more than 100 µM against E. coli [8] (Escherichia coli); more than 100 µM in the data set on E. coli [8] (against E. coli, listed as Control). The “killing kinetics (in words)” value in the data set with MRSA [10] is on record as “relatively slow killing or bacteriostatic effect”. The membrane depolarization result with MSSA [11] is listed as “remained ineffective”. Besides, the EC50 in data set [12] was more than 100 µM. In the data set “Cytotoxicity assay (MTT)”, the EC50 at 24 h is more than 100 µM.
The molecule `CCCCCCCCCCCCCC[N+](C)(C)CCCNC(C)=O` [Compound 14, N′-Acetyl N-tetradecyl N,N dimethyl 1,3 propanediamine] showed an MIC in the data set on E. coli [4] (against E. coli) of more than 100 µM. For the same molecule, the MBC in the data set on E. coli [8] (against E. coli) was more than 100 µM.
